What all share (type): cell-based
Experiment [1] deals with Escherichia coli BW25113 (wild-type). The experiment in a line: MIC broth microdilution, initial screening. The conditions noted are these: Escherichia coli, E. coli BW25113, 18-20 hours, read-out: minimum inhibitory concentration (MIC) E. coli (Wild-type). As to the method: (§1) The minimum inhibitory concentrations (MICs) of the tested compounds and control drugs (linezolid, vancomycin, gentamicin (antibiotics) and fluconazole and 5-fluorocytosine (5-FC) (antifungal drugs)) were determined using the broth microdilution method, according to guidelines outlined by the Clinical and Laboratory Standards Institute (CLSI, Clinical and Laboratory Standards Institute, Methods for antimicrobial susceptibility testing of anaerobic bacteria; approved standard, M11-A8. 8th ed., 2012; CLSI, Clinical and Laboratory Standards Institute. M27-A3 Reference Method for Broth Dilution Antifungal Susceptibility Testing of Yeasts; Approved Standard—Third Edition, Wayne, Pa., 2008) against clinically-relevant bacterial (methicillin-resistant Staphylococcus aureus (MRSA), Escherichia coli, and C. difficile strains) and fungal (Candida albicans) strains. S. aureus and E. coli were grown aerobically overnight on tryptone soy agar plates at 37° C. C. difficile was grown anaerobically on brain heart infusion supplemented agar at 37° C. for 48 hours. C. albicans was grown aerobically overnight on yeast peptone dextrose (YPD) agar plate at 35° C. Afterwards, a bacterial solution equivalent to 0.5 McFarland standard was prepared and diluted in cation-adjusted Mueller-Hinton broth (CAMHB) (for S. aureus and E. coli) to achieve a bacterial concentration of about 5×10^5 CFU/mL. C. difficile was diluted in brain heart infusion supplemented broth, supplemented with yeast extract, hemin and vitamin K to achieve a bacterial concentration of about 5×10^5 CFU/mL. C. albicans was diluted in Roswell Park Memorial Institute (RPMI 1640) medium with glutamine and without bicarbonate (GIBCO by Life Technologies, Green Island, N.Y., USA) which was buffered to pH 7.0 with 0.165 M of [3-(N-morpholino) propanesulfonic acid] (MOPS) (DOT Scientific Inc., Burton, Mich., USA) to achieve a fungal concentration of about 1.5×10^3 CFU/mL. Compounds and control drugs were added in the first row of the 96-well plates and serially diluted with the corresponding media containing bacteria. Plates were then incubated aerobically at 37° C. for 18-20 hours (for S. aureus and E. coli). C. difficile was incubated anaerobically at 37° C. for 48 hours. C. albicans was incubated aerobically at 37° C. for 24 hours.
(§2) The minimum inhibitory concentrations (MICs) of the tested compounds and control drugs; linezolid, vancomycin, gentamicin (antibiotics) and fluconazole and 5-fluorocytosine (5-FC) (antifungal drugs) were determined using the broth microdilution method, according to guidelines outlined by the Clinical and Laboratory Standards Institute (CLSI)^1, 2, 3 against clinically-relevant bacterial (methicillin-resistant Staphylococcus aureus (MRSA), Escherichia coli and Clostridium difficile strains) and fungal (Candida albicans) strain. S. aureus and E. coli were grown aerobically overnight on tryptone soy agar plates at 37° C. C. difficile was grown anaerobically on brain heart infusion supplemented agar at 37° C. for 48 hours. C. albicans was grown aerobically overnight on yeast peptone dextrose (YPD) agar plate at 35° C. Afterwards, a bacterial solution equivalent to 0.5 McFarland standard was prepared and diluted in cation-adjusted Mueller-Hinton broth (CAMHB) (for S. aureus and E. coli) to achieve a bacterial concentration of about 5×10^5 CFU/mL. C. difficile was diluted in brain heart infusion supplemented broth, supplemented with yeast extract, hemin and vitamin K to achieve a bacterial concentration of about 5×10^5 CFU/mL. C. albicans was diluted in Roswell Park Memorial Institute (RPMI 1640) medium with glutamine and without bicarbonate (GIBCO by Life Technologies, Green Island, N.Y., USA) which was buffered to pH 7.0 with 0.165 M of [3-(N-morpholino) propanesulfonic acid]
On the technique in general: In broth dilution the organism is exposed to a series of concentrations in liquid medium.

Experiment [2] deals with Escherichia coli JW55031 (TolC mutant). Kind of experiment: MIC broth microdilution, initial screening. To be noted: Escherichia coli, read-out: minimum inhibitory concentration (MIC) E. coli (TolC mutant), E. coli JW55031, 18-20 hours. How it is done:
as §1, §2

Experiment [3] deals with multi-drug resistant staphylococcal strains. The experiment in a line: MIC against panel of staphylococcal strains. To be noted: Staphylococcus; range over the staphylococcal panel; read-out: MIC values, tested staphylococcal strains.
Description: Based upon the initial results obtained, the active compounds were further screened against additional clinical isolates of methicillin-sensitive S. aureus (MSSA), methicillin-resistant S. aureus (MRSA), vancomycin-resistant S. aureus (VRSA), Staphylococcus epidermidis, vancomycin-resistant Enterococcus faecium (VRE), vancomycin-resistant Enterococcus faecalis (VRE) and Streptococcus pneumoniae, as presented in Table 2. Additionally, we examined whether the compounds were bacteriostatic (inhibit bacteria from growing) or bactericidal (kill bacteria) by determining the minimum bactericidal concentration (MBC). The MBC was determined by plating 5 μL from each well where no growth was present (in the MIC plates) onto tryptic soya agar plates and incubating plates at 37° C. for 24 hours. The MBC was categorized as the lowest concentration that generated a 99.9% reduction in bacterial colony-forming units (Table 3).
as §2, with “acid] (MOPS) (dot scientific inc., Burton, Mich., USA) to achieve a fungal concentration of about 1.5×10^3 CFU/mL. Compounds and control drugs were added in the first row of the 96-well plates and serially diluted with the corresponding media containing bacteria/fungi. Plates were then, incubated aerobically at 37° C. for 18-20 hours (for S. aureus and E. coli). […]” for “acid]”

Another experiment relates to C. albicans (ATCC 64124). Kind of experiment: MIC broth microdilution, initial screening. The conditions noted are these: Candida albicans, read-out: minimum inhibitory concentration (MIC) C. albicans (ATCC 64124). How it is done: as §1, §2
The test system of experiment [4] is Clostridium difficile (ATCC-BAA1870). The experiment in a line: MIC broth microdilution, initial screening. The conditions noted are these: Clostridioides difficile, ATCCBAA1870, 48 h. How it is done:
as §1, §2

The mark [5] stands for this setting: read-out: minimum inhibitory concentration (MIC) C. difficile (ATCC-BAA1870), anaerobic, 48 hours.

Converted amounts (≈) assume the structure as drawn. Where two headings read alike, the source gives them in different places.

As to `CC(=O)NC[C@H]1CN(c2ccc(N3CCOCC3)c(F)c2)C(=O)O1` [Linezolid, reference compound], the MIC is over 64 µg/mL in experiment [1] and 8 µg/mL (≈ 23.7 µM) in experiment [2].

For `O=C(Nc1cccc(Nc2ccc(Cl)nn2)c1)Nc1ccc(Cl)c(Cl)c1` [MY14, 1-(3-((6-chloropyridazin-3-yl)amino)phenyl)-3-(3,4-dichlorophenyl)urea], the MIC in experiment [3] is 2 to 8 µg/mL (≈ 4.89 to 19.6 µM); in experiment [1], over 128 µg/mL; in experiment [2] it was 2 µg/mL (≈ 4.89 µM); in the experiment with C. albicans (ATCC 64124) (ATCC64124, 24 h) it was over 128 µg/mL.

For `O=C(Nc1ccc(-c2ccc(=O)[nH]n2)cc1)Nc1ccc(Cl)c(Cl)c1` [MY21, 1-(3,4-dichlorophenyl)-3-(4-(6-oxo-1,6-dihydropyridazin-3-yl)phenyl)urea], the MIC in experiment [3] and in experiment [4] (setting [5]) was 0.5 to 1 µg/mL (≈ 1.33 to 2.67 µM) throughout.

Regarding `O=C(Nc1ccc(Oc2ccc(=O)[nH]n2)cc1)Nc1ccc(Cl)c(Cl)c1` [MY24, 1-(3,4-dichlorophenyl)-3-(4-((6-oxo-1,6-dihydropyridazin-3-yl)oxy)phenyl)urea], the MIC in experiment [3] is 0.5 to 1 µg/mL (≈ 1.28 to 2.56 µM); in experiment [1], over 128 µg/mL; in experiment [2] it was 1 µg/mL (≈ 2.56 µM); in the experiment on C. albicans (ATCC 64124) (ATCC64124, 24 h), over 128 µg/mL; in experiment [4] (setting [5]), 0.5 to 1 µg/mL (≈ 1.28 to 2.56 µM).

`O=C(Nc1ccc(Oc2ccc(=O)[nH]n2)cc1)Nc1ccc(Cl)c(C(F)(F)F)c1` [MY31, 1-(4-chloro-3-(trifluoromethyl)phenyl)-3-(4-((6-oxo-1,6-dihydropyridazin-3-yl)oxy)phenyl)urea]: the MIC in experiment [3] is 0.5 to 1 µg/mL (≈ 1.18 to 2.35 µM); in experiment [1], over 128 µg/mL; in experiment [2] it was 0.5 µg/mL (≈ 1.18 µM); in the experiment on C. albicans (ATCC 64124) (ATCC64124, 24 h), over 128 µg/mL; in experiment [4] (setting [5]), 0.5 to 1 µg/mL (≈ 1.18 to 2.35 µM).

For `CNC(=O)c1cc(Oc2ccc(NC(=O)Nc3ccc(Cl)c(C(F)(F)F)c3)cc2)ccn1` [Sorafenib, reference compound], the MIC in experiment [1] is over 128 µg/mL; in experiment [2], 1 µg/mL (≈ 2.15 µM); in the experiment on C. albicans (ATCC 64124) (ATCC64124, RPMI 1640, 24 hours), over 128 µg/mL; in experiment [4] (anaerobic, 48 hours, read-out: minimum inhibitory concentration (MIC) C. difficile (ATCC-BAA1870)) it was 1 µg/mL (≈ 2.15 µM).

In the case of `CN[C@H](CC(C)C)C(=O)N[C@H]1C(=O)N[C@@H](CC(N)=O)C(=O)N[C@H]2C(=O)N[C@H]3C(=O)N[C@H](C(=O)N[C@H](C(=O)O)c4cc(O)cc(O)c4-c4cc3ccc4O)[C@H](O)c3ccc(c(Cl)c3)Oc3cc2cc(c3O[C@@H]2O[C@H](CO)[C@@H](O)[C@H](O)[C@H]2O[C@H]2C[C@](C)(N)[C@H](O)[C@H](C)O2)Oc2ccc(cc2Cl)[C@H]1O` [Vancomycin, reference compound], the MIC in experiment [4] (read-out: minimum inhibitory concentration (MIC) C. difficile (ATCC-BAA1870)) was determined as 1 µg/mL (≈ 0.69 µM).

(Values after patent publication US11648248B1 (King Abdulaziz University, priority 2022, dated 2023).)
